Source: patent publication US20260201008A1, “SECRETIN-DERIVED GLP1R SELECTIVE AGONISTS” (GUBRA A/S, priority 2023, published 2026)
Where two headings read alike, the source gives them in different places. Numbered stars: 1 amine (or outer) side, 2 acyl side, 3 side chain; on linkers, the order of the positions; unused ones are H or OH. Square brackets hold non-standard residues; d marks the D form. Side chains are listed from the residue outwards. Peptide text beside a SMILES is read from it. * marks the point of attachment. C20 diacid = O=C(O)CCCCCCCCCCCCCCCCCCC(=O)*; γGlu = O=C(O)[C@H](CCC(=O)[*:2])N[*:1]; AEEA = NCCOCCOCC(=O)O; Aib = CC(C)(N)C(=O)O

How the values were obtained:
[1] = target: SCTR (Homo sapiens, UniProt P47872); assay: hSCTR potency, cAMP accumulation in CHO-K1 cells stably overexpressing hSCTR; type: cell-based; set-up: alternatively Euroscreen ES-712-AF; FAST-0161L; host or cells: CHO-K1; settings: cAMP accumulation, CHO-K1 cells overexpressing hSCTR
Outline: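 Thawed CHO-K1 cells carrying stable hSCTR are plated into casein/IBMX buffer (0.05%, 0.5 mM), dosed immediately for 30 min at room temperature, then cAMP is detected by TR-FRET. Purified peptides run as 11 three-fold dilutions in duplicate, and curves are fitted with variable slope.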

[2] = Turbidity of crude library peptides (absorbance at 600 nm); type: physicochemical; settings: Physical stability of peptides
Outline: (§1)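 Turbidity is the absorbance at 600 nm, taken before heating. Fibril signal is the mean ThT emission at 480 nm (450 nm excitation), read every 10 min over 72 h at 40° C with 700 rpm shaking between reads. Peptides at 267 μM, pH 4.0 acetate or pH 7.0 phosphate buffer (50 mM), 4 μM ThT final.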

[3] = target: GLP1R (Homo sapiens, UniProt P43220); assay: hGLP1R potency, cAMP accumulation in CHO-K1 cells stably overexpressing hGLP1R; type: cell-based; set-up: host or cells: CHO-K1; settings: for EC50: cAMP accumulation, CHO-K1 cells overexpressing hGLP1R; for SCTR EC50/GLP1R EC50 ratio: selectivity for hGLP1R over hSCTR, cAMP accumulation in CHO-K1 cells; for Selectivity: SCTR EC50/GLP1R EC50 ratio
Outline: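 2000 cells/well, DPBS + 0.05% casein + 0.5 mM IBMX; 30 min RT stimulation; HTRF cAMP detection after 1 h. Purified: 3-fold ×11, n=2; crude: 10-fold ×5, n=1. EC50 by variable-slope fit.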

[4] = Fibril formation of crude library peptides (Thioflavin T); type: physicochemical; set-up: key: average ThT fluorescence emission at 480 nm (ex 450 nm), raw units; settings: Physical stability of peptides
Outline: as §1

[5] = read-out: hSCTR pEC50 (converted)
[6] = read-out: hGLP1R pEC50 (converted)
[7] = read-out: pEC50 hSCTR (converted)
[8] = read-out: pEC50 hGLPR1 (converted)

Chain of GLP1R (P43220 24-463): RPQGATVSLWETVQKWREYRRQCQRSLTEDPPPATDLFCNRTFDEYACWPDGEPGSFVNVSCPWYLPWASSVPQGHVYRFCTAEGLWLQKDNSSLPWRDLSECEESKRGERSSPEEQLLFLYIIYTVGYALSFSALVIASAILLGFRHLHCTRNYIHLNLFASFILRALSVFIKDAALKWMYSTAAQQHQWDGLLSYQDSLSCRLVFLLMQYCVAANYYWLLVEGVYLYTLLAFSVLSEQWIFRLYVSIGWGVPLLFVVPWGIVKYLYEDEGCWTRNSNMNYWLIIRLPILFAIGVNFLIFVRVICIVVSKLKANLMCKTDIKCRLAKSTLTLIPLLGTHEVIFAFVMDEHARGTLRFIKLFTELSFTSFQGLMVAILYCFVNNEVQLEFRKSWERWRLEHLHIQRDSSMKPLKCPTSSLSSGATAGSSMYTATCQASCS
Chain of SCTR (P47872 23-440): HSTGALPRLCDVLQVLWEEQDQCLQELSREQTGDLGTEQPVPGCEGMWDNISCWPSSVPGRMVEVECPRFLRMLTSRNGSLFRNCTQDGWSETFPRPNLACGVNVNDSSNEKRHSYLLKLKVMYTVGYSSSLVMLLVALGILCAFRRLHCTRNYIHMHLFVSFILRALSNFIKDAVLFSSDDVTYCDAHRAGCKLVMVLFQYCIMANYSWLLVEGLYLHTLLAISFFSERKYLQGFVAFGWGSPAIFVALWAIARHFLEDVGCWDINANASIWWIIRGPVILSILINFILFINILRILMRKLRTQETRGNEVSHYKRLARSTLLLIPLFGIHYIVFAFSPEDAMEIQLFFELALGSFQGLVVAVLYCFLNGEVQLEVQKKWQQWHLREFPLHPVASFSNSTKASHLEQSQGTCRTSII

Compound | EC50 [1, 5] [nM] | Turbidity (pH 7) [2] | EC50 [3, 6] [nM] | SCTR EC50/GLP1R EC50 ratio [3] | Fibril formation [4] | EC50 [1, 7] [nM] | Selectivity [3] | EC50 [3, 8] [nM]
CC(C)C[C@H](NC(=O)[C@H](Cc1ccccc1)NC(=O)[C@H](CCCNC(=N)N)NC(=O)[C@H](CCC(N)=O)NC(=O)[C@H](CCC(N)=O)NC(=O)[C@H](C)NC(=O)[C@H](C)NC(=O)[C@H](CCC(=O)O)NC(=O)[C@H](CCC(=O)O)NC(=O)[C@H](CCCCNC(=O)COCCOCCNC(=O)COCCOCCNC(=O)CC[C@H](NC(=O)CCCCCCCCCCCCCCCCCCC(=O)O)C(=O)O)NC(=O)[C@H](CC(C)C)NC(=O)[C@H](CCCNC(=N)N)NC(=O)[C@H](CO)NC(=O)[C@@H](NC(=O)[C@H](CC(=O)O)NC(=O)[C@H](CO)NC(=O)[C@@H](NC(=O)[C@H](Cc1ccccc1)NC(=O)[C@@H](NC(=O)CNC(=O)[C@H](CCC(=O)O)NC(=O)C(C)(C)NC(=O)[C@@H](N)Cc1c[nH]cn1)[C@@H](C)O)[C@@H](C)O)C(C)C)C(=O)N[C@@H](CCC(=O)O)C(=O)N[C@@H](Cc1c[nH]cn1)C(=O)N[C@@H](CC(C)C)C(=O)N[C@H](C(N)=O)C(C)C [compound 73] (H-H[Aib]EGTFTSDVSRLK([AEEA-AEEA-γGlu-C20 diacid])EEAAQQRFLEHLV-NH2) | – | 0.09 | – | – | 14344 | 79.4 | 10668 | 0.00631
CC(C)C[C@H](NC(=O)[C@H](Cc1ccccc1)NC(=O)[C@H](CCCNC(=N)N)NC(=O)[C@H](CCC(N)=O)NC(=O)[C@@H](NC(=O)[C@H](C)NC(=O)[C@H](C)NC(=O)C(C)(C)NC(=O)[C@H](CCC(=O)O)NC(=O)[C@H](CCCCNC(=O)COCCOCCNC(=O)COCCOCCNC(=O)CC[C@H](NC(=O)CCCCCCCCCCCCCCCCCCC(=O)O)C(=O)O)NC(=O)[C@H](CC(C)C)NC(=O)[C@H](CCC(=O)O)NC(=O)[C@H](CO)NC(=O)[C@@H](NC(=O)[C@H](CC(=O)O)NC(=O)[C@H](CO)NC(=O)[C@@H](NC(=O)[C@H](Cc1ccccc1)NC(=O)[C@@H](NC(=O)CNC(=O)[C@H](CCC(=O)O)NC(=O)C(C)(C)NC(=O)[C@@H](N)Cc1c[nH]cn1)[C@@H](C)O)[C@@H](C)O)C(C)C)[C@@H](C)O)C(=O)N[C@@H](CCC(=O)O)C(=O)N[C@@H](Cc1c[nH]cn1)C(=O)N[C@@H](CC(C)C)C(=O)N[C@H](C(N)=O)C(C)C [compound 82] (H-H[Aib]EGTFTSDVSELK([AEEA-AEEA-γGlu-C20 diacid])E[Aib]AATQRFLEHLV-NH2) | – | 0.08 | – | – | 8549 | 100 | 11264 | 0.01
CC[C@H](C)[C@H](NC(=O)[C@H](Cc1ccccc1)NC(=O)[C@H](CCCNC(=N)N)NC(=O)[C@H](CCC(N)=O)NC(=O)[C@H](CC(C)C)NC(=O)[C@H](C)NC(=O)[C@H](C)NC(=O)CNC(=O)[C@H](CCC(=O)O)NC(=O)[C@H](CC(C)C)NC(=O)[C@H](CC(C)C)NC(=O)[C@H](CCC(=O)O)NC(=O)[C@H](CO)NC(=O)[C@@H](NC(=O)[C@H](CC(=O)O)NC(=O)[C@H](CO)NC(=O)[C@@H](NC(=O)[C@H](Cc1ccccc1)NC(=O)[C@@H](NC(=O)CNC(=O)[C@H](CCC(=O)O)NC(=O)C(C)(C)NC(=O)[C@@H](N)Cc1c[nH]cn1)[C@@H](C)O)[C@@H](C)O)[C@@H](C)CC)C(=O)N[C@@H](CCC(N)=O)C(=O)N[C@@H](Cc1c[nH]c2ccccc12)C(=O)N[C@@H](CC(C)C)C(=O)N[C@H](C(N)=O)C(C)C [compound 119] (H-H[Aib]EGTFTSDISELLEGAALQRFIQWLV-NH2) | 50.1 | 0.12 | 0.0251 | 2127 | 13897 | – | – | –

Next, values leading:

EC50 [1, 5] [nM] | Turbidity (pH 7) [2] | EC50 [3, 6] [nM] | SCTR EC50/GLP1R EC50 ratio [3] | Fibril formation [4] | EC50 [1, 7] [nM] | Selectivity [3] | EC50 [3, 8] [nM] | Compound
251 | 0.08 | 0.0158 | 16042 | 5805 | – | – | – | CC(C)C[C@H](NC(=O)[C@H](Cc1ccccc1)NC(=O)[C@H](CCCNC(=N)N)NC(=O)[C@H](CCC(N)=O)NC(=O)[C@H](CC(C)C)NC(=O)C(C)(C)NC(=O)[C@H](C)NC(=O)[C@H](CCC(=O)O)NC(=O)[C@H](CCC(=O)O)NC(=O)[C@H](CCCCNC(=O)COCCOCCNC(=O)COCCOCCNC(=O)CC[C@H](NC(=O)CCCCCCCCCCCCCCCCCCC(=O)O)C(=O)O)NC(=O)[C@H](CC(C)C)NC(=O)[C@H](Cc1ccc(O)cc1)NC(=O)[C@H](CO)NC(=O)[C@@H](NC(=O)[C@H](CC(=O)O)NC(=O)[C@H](CO)NC(=O)[C@@H](NC(=O)[C@H](Cc1ccccc1)NC(=O)[C@@H](NC(=O)CNC(=O)[C@H](CCC(=O)O)NC(=O)C(C)(C)NC(=O)[C@@H](N)Cc1c[nH]cn1)[C@@H](C)O)[C@@H](C)O)C(C)C)C(=O)N[C@@H](CCC(=O)O)C(=O)N[C@@H](Cc1ccc(O)cc1)C(=O)N[C@@H](CC(C)C)C(=O)N[C@H](C(N)=O)C(C)C [compound 144] (H-H[Aib]EGTFTSDVSYLK([AEEA-AEEA-γGlu-C20 diacid])EEA[Aib]LQRFLEYLV-NH2)
– | 0.09 | – | – | 12140 | 501 | 16263 | 0.0316 | CC(C)C[C@H](NC(=O)[C@H](Cc1ccccc1)NC(=O)[C@H](CCCNC(=N)N)NC(=O)[C@H](CCC(N)=O)NC(=O)[C@H](CCC(=O)O)NC(=O)[C@H](C)NC(=O)[C@H](C)NC(=O)C(C)(C)NC(=O)[C@H](CCC(=O)O)NC(=O)[C@H](CCCCNC(=O)COCCOCCNC(=O)COCCOCCNC(=O)CC[C@H](NC(=O)CCCCCCCCCCCCCCCCCCC(=O)O)C(=O)O)NC(=O)[C@H](CC(C)C)NC(=O)[C@H](CCC(=O)O)NC(=O)[C@H](CO)NC(=O)[C@@H](NC(=O)[C@H](CC(=O)O)NC(=O)[C@H](CO)NC(=O)[C@@H](NC(=O)[C@H](Cc1ccccc1)NC(=O)[C@@H](NC(=O)CNC(=O)[C@H](CCC(=O)O)NC(=O)C(C)(C)NC(=O)[C@@H](N)Cc1c[nH]cn1)[C@@H](C)O)[C@@H](C)O)C(C)C)C(=O)N[C@@H](CCC(=O)O)C(=O)N[C@@H](Cc1c[nH]cn1)C(=O)N[C@@H](CC(C)C)C(=O)N[C@H](C(N)=O)C(C)C [compound 18] (H-H[Aib]EGTFTSDVSELK([AEEA-AEEA-γGlu-C20 diacid])E[Aib]AAEQRFLEHLV-NH2)
126 | 0.08 | – | 178176 | 4281 | – | – | – | CC(C)C[C@H](NC(=O)[C@H](Cc1ccccc1)NC(=O)[C@H](CCCNC(=N)N)NC(=O)[C@H](CCC(N)=O)NC(=O)[C@@H](NC(=O)C(C)(C)NC(=O)[C@H](C)NC(=O)[C@H](CCC(=O)O)NC(=O)[C@H](CCC(=O)O)NC(=O)[C@H](CCCCNC(=O)COCCOCCNC(=O)COCCOCCNC(=O)CC[C@H](NC(=O)CCCCCCCCCCCCCCCCCCC(=O)O)C(=O)O)NC(=O)[C@H](CC(C)C)NC(=O)[C@H](Cc1ccc(O)cc1)NC(=O)[C@H](CO)NC(=O)[C@@H](NC(=O)[C@H](CC(=O)O)NC(=O)[C@H](CO)NC(=O)[C@@H](NC(=O)[C@H](Cc1ccccc1)NC(=O)[C@@H](NC(=O)CNC(=O)[C@H](CCC(=O)O)NC(=O)C(C)(C)NC(=O)[C@@H](N)Cc1c[nH]cn1)[C@@H](C)O)[C@@H](C)O)C(C)C)[C@@H](C)O)C(=O)N[C@@H](CCC(=O)O)C(=O)N[C@@H](Cc1c[nH]cn1)C(=O)N[C@@H](CC(C)C)C(=O)N[C@H](C(N)=O)C(C)C [compound 162] (H-H[Aib]EGTFTSDVSYLK([AEEA-AEEA-γGlu-C20 diacid])EEA[Aib]TQRFLEHLV-NH2)
– | 0.08 | – | – | 8584 | 7940 | 8268 | 1 | CC(C)C[C@H](NC(=O)[C@H](Cc1ccccc1)NC(=O)[C@H](CCCNC(=N)N)NC(=O)[C@H](CCC(N)=O)NC(=O)C(C)(C)NC(=O)[C@H](C)NC(=O)[C@H](C)NC(=O)[C@@H](NC(=O)[C@H](CCC(=O)O)NC(=O)[C@H](CCCCNC(=O)COCCOCCNC(=O)COCCOCCNC(=O)CC[C@H](NC(=O)CCCCCCCCCCCCCCCCCCC(=O)O)C(=O)O)NC(=O)[C@H](CC(C)C)NC(=O)[C@H](Cc1ccccc1)NC(=O)[C@H](CO)NC(=O)[C@@H](NC(=O)[C@H](CC(=O)O)NC(=O)[C@H](CO)NC(=O)[C@@H](NC(=O)[C@H](Cc1ccccc1)NC(=O)[C@@H](NC(=O)CNC(=O)[C@H](CCC(=O)O)NC(=O)C(C)(C)NC(=O)[C@@H](N)Cc1c[nH]cn1)[C@@H](C)O)[C@@H](C)O)C(C)C)[C@@H](C)O)C(=O)N[C@@H](CCC(=O)O)C(=O)N[C@@H](Cc1c[nH]cn1)C(=O)N[C@@H](CC(C)C)C(=O)N[C@H](C(N)=O)C(C)C [compound 25] (H-H[Aib]EGTFTSDVSFLK([AEEA-AEEA-γGlu-C20 diacid])ETAA[Aib]QRFLEHLV-NH2)
